Laboratory results published in the supplement of paper PMC13380429.
± gives the standard deviation of the averaged measurements.

Columns and labels:
Conditions in all cases: 72 h
Caco-2 [1] = test: cell viability relative to DMSO; higher = less toxic
Calu-3 [2] = test: as above
HepG2 [3] = test: as above
U2OS [4] = test: as above
Vero E6 [5] = test: as above
Caco-2 [6] = test: relative viability EC50 (midpoint between 100% and the lowest measured viability); higher = less toxic
Calu-3 [7] = test: as above
HepG2 [8] = test: as above
U2OS [9] = test: as above
Vero E6 [10] = test: as above
Caco-2 [11] = test: drug sensitivity score (DSS) for viability; higher = more toxic; extreme values may be limits of the assay
Calu-3 [12] = test: as above
HepG2 [13] = test: as above
U2OS [14] = test: as above
Vero E6 [15] = test: as above

Compound	cell viability (Caco-2 [1]; 1 nM) [%]	cell viability (Caco-2 [1]; 10 nM) [%]	cell viability (Caco-2 [1]; 100 nM) [%]	cell viability (Caco-2 [1]; 1000 nM) [%]	cell viability (Caco-2 [1]; 10000 nM) [%]	cell viability (Calu-3 [2]; 1 nM) [%]	cell viability (Calu-3 [2]; 10 nM) [%]	cell viability (Calu-3 [2]; 100 nM) [%]	cell viability (Calu-3 [2]; 1000 nM) [%]	cell viability (Calu-3 [2]; 10000 nM) [%]	cell viability (HepG2 [3]; 1 nM) [%]	cell viability (HepG2 [3]; 10 nM) [%]	cell viability (HepG2 [3]; 100 nM) [%]	cell viability (HepG2 [3]; 1000 nM) [%]	cell viability (HepG2 [3]; 10000 nM) [%]	cell viability (U2OS [4]; 1 nM) [%]	cell viability (U2OS [4]; 10 nM) [%]	cell viability (U2OS [4]; 100 nM) [%]	cell viability (U2OS [4]; 1000 nM) [%]	cell viability (U2OS [4]; 10000 nM) [%]	cell viability (Vero E6 [5]; 1 nM) [%]	cell viability (Vero E6 [5]; 10 nM) [%]	cell viability (Vero E6 [5]; 100 nM) [%]	cell viability (Vero E6 [5]; 1000 nM) [%]	cell viability (Vero E6 [5]; 10000 nM) [%]	relative viability EC50 (Caco-2 [6]) [µM]	relative viability EC50 (Calu-3 [7]) [µM]	relative viability EC50 (HepG2 [8]) [µM]	relative viability EC50 (U2OS [9]) [µM]	relative viability EC50 (Vero E6 [10]) [µM]	drug sensitivity score (Caco-2 [11])	drug sensitivity score (Calu-3 [12])	drug sensitivity score (HepG2 [13])	drug sensitivity score (U2OS [14])	drug sensitivity score (Vero E6 [15])
Fc1ccc(Cl)cc1-c1nc(Nc2ccncc2)c2nccnc2n1 [SD-208]	108	102	104	93.4	93.2	107	94.9	111	105	103	107	107	103	95.6	98.2	103	101	96.5	90.1	91.2	102	103	106	96.5	86.2	> 10	> 10	> 10	> 10	> 10	0	0	0	0	0.4
C=C(C)CN1CC[C@]23c4c5ccc(O)c4O[C@H]2c2[nH]c4ccccc4c2C[C@@]3(O)C1C5 [SDM25N]	92.9	102	89.9	101	86.4	92.8	86.2	93.5	110	82.4	92.7	101	100	102	80.7	93.7	100	100	101	91.8	90.7	93.1	95.6	96.6	88.8	> 10	> 10	> 10	> 10	> 10	0.1	0.2	0.4	0	0
CCN(CC)CCOC(=O)c1cc(Cl)c(N)cc1OC [SDZ-205-557]	95.5	101	97.9	106	104	107	101	88	96.6	90.1	105	97.1	90.6	93.3	102	98.9	102	97	103	98.3	106	104	99	94.8	97.3	> 10	> 10	> 10	> 10	> 10	0	0	0	0	0
CO[C@@H]1[C@H](O)[C@@H](CO)O[C@H]1n1cnc2c(NC3CCCCC3)ncnc21 [SDZ-WAG-994]	84.7	95.4	90	103	99.5	88.5	89.5	83.3	88.3	109	88	93.4	104	93	101	93.6	100	97	103	108	99.5	94.7	97.1	95.2	109	> 10	> 10	> 10	> 10	> 10	0	0	0	0	0
Cc1ccc(S(=O)(=O)OCC(=O)Nc2ccc(C(=O)O)c(O)c2)cc1 [STAT3-inhibitor-VI]	101	93.1	90.6	90.8	99.9	102	95.1	102	96.2	101	102	104	96.2	92.1	95.6	103	96	101	104	99	98.3	97.6	94.1	98.9	89.8	> 10	> 10	> 10	> 10	> 10	0	0	0	0	0
N#Cc1ccc(N(Cc2ccc(Br)cc2)n2cnnc2)cc1 [YM-511]	108	92	94.1	92	88.3	95.9	97.8	92.4	97.4	99.3	104	102	99.8	96.6	98	104	96.4	103	98.4	101	103	98	100	106	96.6	> 10	> 10	> 10	> 10	> 10	0.2	0	0	0	0
CCc1cc2c(c(CC)n1)CCC(=O)N2Cc1ccc(-c2ccccc2-c2nnn[nH]2)cc1 [ZD-7155]	97.5	86.9	91.5	96.8	109	111	99.8	97	95.3	94.7	86.1	97.8	91.1	99.6	102	96.2	97.4	102	99.3	101	92.5	96.2	91.6	97.1	102	> 10	> 10	> 10	> 10	> 10	0	0	0	0	0
CCN(c1ccccc1)c1cc(=NC)n(C)c(C)n1 [ZD-7288]	103	102	113	101	97.3	106	101	91.8	103	96.9	98.1	109	99.4	102	93.5	97.4	97.6	103	98.7	96	108	103	99.3	102	99	> 10	> 10	> 10	> 10	> 10	0	0	0	0	0
CC(=O)NCCCCCC(=O)O [acexamic-acid]	108	99.2	98.3	108	103	98.9	89.2	94.9	114	102	93	105	99.1	93.7	107	96.8	104	96.3	104	100	99.4	99.1	101	99.3	102	> 10	> 10	> 10	> 10	> 10	0	0	0	0	0
CC(C)(C)NCC(O)c1ccc(O)c(CO)c1 (stereo not given) [albuterol]	101 ± 2	101 ± 14	90.9 ± 2.3	96.3 ± 1.5	102 ± 7.1	98.2 ± 3.3	97.2 ± 3.8	96.2 ± 6.6	103 ± 6	103 ± 9.1	108 ± 2.9	96.1 ± 2.7	98.5 ± 15	100 ± 14	91.6 ± 11	101 ± 2.5	98.5 ± 4	97 ± 2.5	97.6 ± 3.7	96.2 ± 2.9	106 ± 2.5	94.8 ± 5.2	99.5 ± 3	97.8 ± 0.42	101 ± 3.8	> 10	> 10	> 10	> 10	> 10	0	0	0.55 ± 0.78	0	0
Nc1ccc(C(=O)O)c(O)c1 [aminosalicylate]	95.7	115	105	116	104	96.5	101	107	98.9	99.3	92.6	102	99.7	81.1	102	92.5	101	96.4	104	93.8	95.5	98.5	104	104	95.3	> 10	> 10	> 10	> 10	> 10	0	0	0	0	0
Clc1ccc([C@]23CNC[C@H]2C3)cc1Cl [amitifadine]	99.2	92	103	87.3	95.8	106	90.7	101	105	97.9	89.5	104	98.2	98.6	94.9	100	97.6	103	98.4	104	101	105	100	103	99	> 10	> 10	> 10	> 10	> 10	0	0	0	0	0
CCOc1cc([C@@H](CS(C)(=O)=O)N2C(=O)c3cccc(NC(C)=O)c3C2=O)ccc1OC [apremilast]	93.4	100	98.8	97.3	106	102	108	89.8	99.9	108	102	95	101	84.1	100	93.1	101	97.8	92.7	99.1	104	104	98.7	99.6	99.6	> 10	> 10	> 10	> 10	> 10	0	0	0	0	0
C[C@@H](O[C@H]1OCCN(Cc2n[nH]c(=O)[nH]2)[C@H]1c1ccc(F)cc1)c1cc(C(F)(F)F)cc(C(F)(F)F)c1 [aprepitant]	100	107	100	105	89.2	90.9	105	103	97.7	97.1	102	103	106	109	95.3	99.5	103	95.3	102	88.4	97.4	104	98.8	103	103	> 10	> 10	> 10	> 10	> 10	0	0	0	0	0
CC1=C(/C=C/C(C)=C/C=C/C(C)=C/C=C/C=C(C)/C=C/C=C(C)/C=C/C2=C(C)C(=O)[C@@H](O)CC2(C)C)C(C)(C)C[C@H](O)C1=O [astaxanthin]	103	109	84	84.8	81.9	98.9	97.6	101	96.4	99.6	84.3	102	98.9	102	107	97.8	104	100	93.6	98.4	102	96.9	103	101	92.1	> 10	> 10	> 10	> 10	> 10	3.6	0	0	0	0
